Structures can show the parent of a compound that is named as a salt.
Tests used:
[1] = oral administration to human Type 2 diabetics; cited from earlier work
[2] = In vitro dissolution of sitagliptin phosphate from the drug film layer; assay type: physicochemical; conditions: FIG. 4

dissolution of sitagliptin phosphate compared with sitagliptin phosphate in JANUMET ([2]; comparator JANUMET (immediate-release metformin HCl and sitagliptin phosphate)) | time to complete dissolution of sitagliptin phosphate from the drug film layer ([2]; drug film layer of the composition) [min] | SMILES | effect on fasting glucose, postprandial glucose excursion and HbA1c [1]
 |  | Cn1c(=O)cc(N2CCC[C@@H](N)C2)n(Cc2ccccc2C#N)c1=O [alogliptin] | reduce fasting glucose and postprandial glucose excursion
comparable | ≤ 30 | N[C@@H](CC(=O)N1CCn2c(nnc2C(F)(F)F)C1)Cc1cc(F)c(F)cc1F [sitagliptin phosphate, dihydrogenphosphate salt of (2R)-4-oxo-4-[3-(trifluoromethyl)-5,6-dihydro[1,2,4]triazolo[4,3-a]pyrazin-7(8H)-yl]-1-(2,4,5-trifluorophenyl)butan-2-amine] | 
 |  | N[C@@H](CC(=O)N1CCn2c(nnc2C(F)(F)F)C1)Cc1cc(F)c(F)cc1F [sitagliptin, (2R)-4-oxo-4-[3-(trifluoromethyl)-5,6-dihydro[1,2,4]triazolo[4,3-a]pyrazin-7(8H)-yl]-1-(2,4,5-trifluorophenyl)butan-2-amine] | reduce fasting glucose and postprandial glucose excursion
 |  | N#C[C@@H]1CCCN1C(=O)CNC12CC3CC(CC(O)(C3)C1)C2 [vildagliptin] | reduce fasting glucose and postprandial glucose excursion

From US20100323011A1, “PHARMACEUTICAL COMPOSITIONS OF A COMBINATION OF METFORMIN AND A DIPEPTIDYL PEPTIDASE-IV INHIBITOR” (priority 2008, published 2010)
